Read-outs that look alike come from different tables or passages of the source.
Assays:
[1] = Pharmacokinetics of M6G at single and multiple intravenous doses in healthy volunteers; type: in vivo, human; details: for clearance / AUC(0-inf) / Cmax / MRT inf / Vd / half-life: both sexes, human, plasma, iv; for AUC(0-inf): read-out: AUC0-∞; for Cmax: read-out: Cmax; for MRT inf: read-out: MRT0-∞; for Vd: read-out: Vss; for half-life: read-out: t½ (converted); for CLss / MRT24-∞: multiple dose, Dose 5-15 mg
Description: Healthy male and female subjects were divided into two groups (A and B) with 12 in each. Group A received three single intravenous infusions of M6G over 5 mins at levels of 15, 30 and 45 mg/70 kg in random order, having taken 50 mg of naloxone orally 24 hrs beforehand. There was a seven-day wash-out period between each dose. Blood samples were taken pre-dose and at the following time-points: 3, 5, 15, 30 mins and 1, 2, 3, 4, 6, 12 and 24 hrs after the start of the infusion. Group, B received five, 15 mg/70 kg, intravenous infusions of M6G, each over five minutes, at 6-hourly intervals, having taken a 50 mg oral dose of naloxone 24 hrs before the first infusion. Blood samples were taken before each of the 5 doses, and at 3, 5, 15, 30 mins and at 1, 2, 3 and 4 hrs after the initiation of the 1st and 5th infusions and at 6 hrs after the 5th dose. Vital signs (supine blood pressure, pulse, respiratory rate and oral temperature), respiration rate, pulse oximetry and adverse events were monitored during the study. Plasma levels of M6G were measured using HPLC/ms/ms.

[2] = prior experimental human and clinical studies; cited from earlier work
[3] = tested on: patients following total knee-replacement surgery; assay: M6G015 study: pain following total knee-replacement surgery; type: in vivo, human; details: 10, 20, 30 mg/70 kg slow IV, PCA morphine allowed
Description: Patients received a single dose of study treatment 150 minutes after the administration of the nerve block. […] The complete study has recently been reported by Dahan et al. (Eur J Pain, 2008; 12(4): 403-411).

[4] = tested on: patients following hip-replacement surgery; assay: M6G001A study: post-operative analgesia following hip-replacement surgery; type: in vivo, human; details: all doses (10, 15, 20 mg/70 kg IV bolus followed by PCA)
Excerpt: . This was a double-blind, randomised study. […]

[5] = 15 mg/70 kg, single 5 min iv infusion 15 mg, Mean
[6] = 15 mg/70 kg, single 5 min iv infusion 15 mg, Median
[7] = 30 mg/70 kg, single 5 min iv infusion 30 mg, Geometric Mean
[8] = 30 mg/70 kg, single 5 min iv infusion 30 mg, Mean
[9] = 30 mg/70 kg, single 5 min iv infusion 30 mg, Median
[10] = 45 mg/70 kg, single 5 min iv infusion 45 mg, Geometric Mean
[11] = 45 mg/70 kg, single 5 min iv infusion 45 mg, Mean
[12] = 45 mg/70 kg, single 5 min iv infusion 45 mg, Median

`CN1CC[C@]23c4c5ccc(O)c4O[C@H]2[C@@H](OC2OC(C(=O)O)C(O)C(O)C2O)C=CC3[C@H]1C5` (stereo partly drawn) [M6G, (5α,6α)-7,8-Didehydro-4,5-epoxy-3-hydroxy-17-methylmorphinan-β-yl-β-D-glucopyranosiduronic acid] gave a clearance [1, 5] of 133 mL/min, an AUC(0-inf) [1, 5] of 1.93 µg·h/mL and a Cmax [1, 5] of 1.86 µg/mL. It also gave an MRT inf [1, 5] of 1.65 h, a Vd [1, 5] of 13 L and a half-life [1, 5] of 1.48 h. For the same compound, the clearance [1, 6] was 133 mL/min, the AUC(0-inf) [1, 6] was 1.89 µg·h/mL and the Cmax [1, 6] was 1.65 µg/mL. For the same compound, the MRT inf [1, 6] was 1.69 h, the Vd [1, 6] was 12.6 L and the half-life [1, 6] was 1.56 h. For the same compound, the clearance [1, 7] was 121 mL/min, the AUC(0-inf) [1, 7] was 4.15 µg·h/mL and the Cmax [1, 7] was 3.87 µg/mL. It also gave an MRT inf [1, 7] of 1.76 h, a Vd [1, 7] of 12.7 L and a half-life [1, 7] of 1.7 h. The clearance [1, 8] was 122 mL/min, the AUC(0-inf) [1, 8] was 4.19 µg·h/mL and the Cmax [1, 8] was 3.98 µg/mL. It also gave an MRT inf [1, 8] of 1.77 h, a Vd [1, 8] of 12.8 L and a half-life [1, 8] of 1.72 h. For the same compound, the clearance [1, 9] was 125 mL/min, the AUC(0-inf) [1, 9] was 4 µg·h/mL and the Cmax [1, 9] was 4.11 µg/mL. It also gave an MRT inf [1, 9] of 1.81 h, a Vd [1, 9] of 12.2 L and a half-life [1, 9] of 1.81 h. For the same compound, the clearance [1, 10] was 128 mL/min, the AUC(0-inf) [1, 10] was 5.85 µg·h/mL and the Cmax [1, 10] was 5.72 µg/mL. The MRT inf [1, 10] was 1.66 h, the Vd [1, 10] was 12.8 L and the half-life [1, 10] was 1.62 h. The clearance [1, 11] was 130 mL/min, the AUC(0-inf) [1, 11] was 5.91 µg·h/mL and the Cmax [1, 11] was 5.86 µg/mL. It also gave an MRT inf [1, 11] of 1.68 h, a Vd [1, 11] of 12.9 L and a half-life [1, 11] of 1.64 h. The clearance [1, 12] was 136 mL/min, the AUC(0-inf) [1, 12] was 5.5 µg·h/mL and the Cmax [1, 12] was 5.86 µg/mL. For the same compound, the MRT inf [1, 12] was 1.78 h, the Vd [1, 12] was 13.1 L and the half-life [1, 12] was 1.69 h. The “accumulation, AUC0-∞” value ([1]; five 15 mg iv infusions at 6 hour intervals) was 2.9%, the safety ([1]; healthy volunteers, single and multiple iv doses) was “No clinically significant safety issues” and the CLss ([1]; Geometric Mean) was 7261 mL/h. For the same compound, the “MRT24-∞” value ([1]; Geometric Mean) was 1.63 h, the CLss ([1]; Mean) was 7303 mL/h and the “MRT24-∞” value ([1]; Mean) was 1.65 h. The CLss ([1]; Median) was 7173 mL/h, the “MRT24-∞” value ([1]; Median) was 1.64 h and the “potency ratio morphine and M6G” value [2] was 3 to 1. For the same compound, the “patients' opinion of pain relief compared with placebo” value [3] was “no statistically significant differences” and the tolerability [4] was “well tolerated”.
